Key:
Aβ42 = Aβ42 (Homo sapiens, UniProt P05067); test: Grating-Coupled Interferometry (GCI) binding to immobilized Aβ42
Method: The Grating‐Coupled Interferometry (GCI) is a widely used analytical technique for characterizing intermolecular interactions. It allows quantitative measurements of both the affinity and the kinetics of the binding events. This high sensitivity label‐free method was exploited to measure the interactions of Aβ42 with Cu‐Ph‐Pep , Ph‐Pep , and Zn‐Ph‐Pep (Figure 5S). Control experiments with pristine MCPTPyP and the peptide GPGKLVFF ( Pep ) were carried out for comparison. The calculated association and dissociation kinetic constants (kon and koff, respectively) and the thermodynamic binding constant (KD), are summarized in Table 1. The obtained values indicate that all the conjugates show good affinities with Aβ42. It is also clear from Table 1 that the peptide moiety is fundamental for the molecular recognition of the Aβ42 peptide.[48] […] Nevertheless, it is important to emphasize that the interaction with Aβ42 is primarily mediated by the peptide rather than by the porphyrin macrocycle. We next investigated whether these peptide derivatives could be employed as molecular probes for the detection of Aβ42 aggregated species. A new set of CD experiments was then carried out with Aβ42 at 20 μM both in the absence and in the presence of the porphyrin‐peptide conjugates at 1 : 1 molar ratio in the UV (195–350) and Visible (350–500) regions. […] The signal rapidly evolved toward the typical β‐sheet profile (already within 24 h) with a single minimum at 216 nm, an x‐axis intercept at 202 nm and a maximum shift at a wavelength 195 nm.[49] […] For the sake of comparison, the CD spectra of the porphyrin‐peptide conjugates at 20 μM were also recorded in the same experimental conditions, both in the far‐UV and Visible regions (Figure 6S).
The experiments were performed on a Creoptix WAVE system (Creoptix). Borate buffer (100 mM sodium borate pH 9.0, 1 M NaCl) was used for chip conditioning. Aβ42 peptide (20 μg/ml in Na Acetate pH 4.5) was immobilized on 4PCH WAVE chips (quasiplanar polycarboxylate surface; Creoptix) according to the manufacturer instructions at a final density of 1910±40 pg/mm^2. Single‐cycle sequential injections of dilution series for each Porphyrin‐Peptide conjugates in running buffer (PBS, 0.005 % Tween 20, 1 % DMSO, 0.2 mg/ml BSA) were performed at 25 °C, using a flow rate of 100 μl/min. In details, for the conjugate Cu‐Ph‐Pep , 1 : 2 dilution series starting from 200 μM were injected for 10 s association time, 45 s dissociation time, followed by a dissociation time of 600 s for the last higher concentration injection. Finally, for the conjugates Ph‐Pep and Zn‐Ph‐Pep , 1 : 2 dilution series starting from 50 μM and 100 uM, respectively, were injected for 30 s association time, 45 s dissociation time, followed by a dissociation time of 600 s for the last higher concentration injection. Blank injections were used for double referencing and a DMSO calibration curve for bulk correction. Analysis and correction of the obtained data were performed using the Creoptix WAVE control software (correction applied: X and Y offset; DMSO calibration; double referencing). Mass transport binding models with bulk correction were used to fit all experiments. All the experiments have been performed at least in triplicate.
Figure 5S. Quantitative binding kinetics of Aβ42 vs a) MCPTPyP; b) Cu-Ph-Pep; c) Ph-Pep; d) Zn-Ph-Pep; and e) Pep measured by GCI. All curves were blank subtracted. Experiments were performed in triplicate. All the quality assessments (i.e., χ2 shown in Table 1 of the main text , parameter errors, and residual plots were acceptable; the sensorgrams had sufficient curvatures an d the kinetic constant k off were within the measurable range) were fulfilled. Descriptive Statistical Analysis was employed to calculate the mean of the obtained values of k on, koff and KD as a measure of central tendency and standard deviations of the former values were computed as a measure of dispersion.
Figure 6S. […]

SH-SY5Y = test: Live cell confocal fluorescence imaging; format: cell-based, human; details: RA-differentiated SH-SY5Y, 5 μM, 24 h, excitation 405 nm, emission 600–700 nm
Method: The intracellular localization of porphyrins in living cells has already been reported in the literature.[50, 51] […] The ability of our compounds to associate with cells or to be taken up by them was investigated by live cell confocal fluorescence and flow cytometry. For this purpose, we exploited the fluorescence of the porphyrin moiety. Fully differentiated SH‐SY5Y cells were exposed to 5 μM of each compound for 24 h, and then fluorescence spectra inside and outside cells were measured as described in the experimental section. The images reported in Figure 6, panel a, show the emission spectra recorded (pixel by pixel) inside cells, compared to the emission spectra recorded for control cells (no porphyrins in the growth medium). A specific porphyrin signal recorded between 600 nm and 700 nm only in the exposed sample, provides evidence that the porphyrin‐conjugated compounds are distributed within the cells. We first measured the emission spectra of each compound to confirm that the fluorescent properties measured in vitro were maintained under the conditions applied during the biological assay. Once the specific emission peak typical of porphyrins was detected inside the cells, we measured the average fluorescence intensity for each compound under study. Although modest, the signal was detected in almost every cell under the microscope stage. […]

Chain of Aβ42 (P05067 672-713 limits assumed): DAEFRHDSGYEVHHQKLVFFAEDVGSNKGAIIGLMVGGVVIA

## C[n+]1ccc(-c2c3nc(c(-c4cc[n+](C)cc4)c4ccc([nH]4)c(-c4cc[n+](C)cc4)c4nc(c(-c5ccc(C(=O)O)cc5)c5ccc2[nH]5)C=C4)C=C3)cc1.[Cl-].[Cl-].[Cl-] [MCPTPyP, 5‐(4‐carboxyphenyl)‐10,15,20‐(tri‐N‐Methyl‐4‐Pyridyl) Porphyrin trichloride, reference compound]
Aβ42; GCI (Creoptix WAVE), Aβ42 immobilized on 4PCH chip, PBS, 0.005 % Tween 20, 1 % DMSO, 0.2 mg/ml BSA, 25 °C, 100 μl/min, mass transport binding model, mean ± SD, at least triplicate
  Kd: 215 ± 13 µM
Aβ42; GCI fit quality parameter
  χ^2 (average of the squared residuals, fitting confidence): 0.63±0.06
SH-SY5Y
  cell entry / intracellular distribution: able to cross the plasma membrane and to distribute within the cells
